Where two headings read alike, the source gives them in different places.
Experiments:
[1] = target: HIF-2α PAS-B (Homo sapiens, UniProt Q99814); experiment: Isothermal titration calorimetry (ITC) on HIF-2α PAS-B;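 also: Wild-type protein (200 µM) titrated into 5-10 µM compound, heats of dilution from a compound-free titration subtracted, isotherms fit to a single-site model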
Excerpt: ITC, as described more fully below, introduces a wild-type HIF-2α PAS-B solution into a to-be-assayed compound solution using, for example, a VP-ITC instrument (MicroCal). After subtracting heats of dilution evolved from the titrating protein, e.g., wild-type HIF-2α PAS-B, into a compound-free buffer, data were fit to a single-site binding model with, for example, MicroCal Origin® software to determine complex affinities.
The following is a general procedure describing the ITC assay Thermodynamic parameters of small molecule binding are determined using a MicroCal VP-ITC calorimeter. Solutions of HIF-2α PAS-B are extensively dialyzed against buffer (50 mM Tris (pH 7.5), 20 mM NaCl and 5 mM beta-mercaptoethanol), which is subsequently used to prepare a matched compound solution by dilution from a 50 mM compound stock in 100% DMSO. […] Each isotherm is recorded by injecting 200 μM protein (syringe) into 5-10 μM solutions of compound (cell), accounting for dilution heats by subtracting data from a control titration of 200 μM protein into a matched buffer-DMSO solution. Thermograms are fit to a single site binding model to extract equilibrium binding parameters.

[2] = target: HIF-2α PAS-B*/ARNT PAS-B* heterodimer (Homo sapiens, UniProt Q99814, R247E); experiment: AlphaScreen, HIF-2α PAS-B*/ARNT PAS-B* heterodimerization;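 also: GST-tagged HIF-2α PAS-B* and FLAG-tagged ARNT PAS-B* with glutathione donor and anti-FLAG acceptor beads, luminescence after 680 nm excitation, loss of signal indicating disrupted heterodimer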
Chain of HIF-2α PAS-B*/ARNT PAS-B* heterodimer (Q99814 240-350 R247E, one chain of several): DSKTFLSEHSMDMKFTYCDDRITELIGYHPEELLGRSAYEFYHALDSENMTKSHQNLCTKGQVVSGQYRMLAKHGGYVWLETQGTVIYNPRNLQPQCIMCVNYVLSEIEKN
Excerpt: (FIG. 8a) As shown in the cartoon schematic, interactions between GST-tagged HIF-2α (green) and FLAG-tagged ARNT (blue) PAS-B* domains recruit both donor beads (D), coated with glutathione, and acceptor beads (A), coated with anti-FLAG antibodies, to one another. Upon illumination with red (680 nm) light, donor beads will generate short-lived singlet oxygen (^1O2). Nearby (<200 nm) acceptor beads can react with ^1O2 to emit light at shorter wavelengths (top). Compounds that disrupt the complex correspondingly eliminate this signal (bottom). Compounds that non-specifically interfere with the AlphaScreen assay can be identified with a counterscreen in which the ARNT PAS-B* domain was simultaneously tagged with both the GST and FLAG tags. (FIG. 8b) The AlphaScreen signal (relative units; RU) reflecting protein-protein interactions between 25 (open triangles), 50 (open circles) or 100 (closed circles) nM HIF-2α PAS-B* increases with increasing concentrations of ARNT PAS-B*. At the highest ARNT PAS-B* concentrations, a decrease in signal reflects the hook effect. At these concentrations, protein binding to the acceptor beads has become saturated and free ARNT PAS-B* competes with the coated acceptor beads for the donor beads bound to HIF-2α PAS-B*. […] Assays were performed in triplicate and the error bars represent±SD.
Inhibition of heterodimerization of HIF-2α to HIF1β (ARNT) may be determined in an Amplified Luminescent Proximity Homogeneous Assay (AlphaScreen).
The AlphaScreen assay can be done according to the following procedures: • 1. Prepare cold binding buffer solution: 20 mM Tris-Cl (pH=7.5), 100 mM NaCl, 1 mM DTT, 0.02% Tween-20 (final concentration) and place on ice to keep temperature approximately 4° C. • 2. Prepare Protein Mix: To a 50 mL conical tube add 23 mL of cold buffer and 0.04 mL of both GST-HIF2α PASB* (100 μM) and ARNT-PASB*-Flag (100 μM). • 3. Distribute to 96 well plate: Add 60 μL of protein mix to each wells. • 4. Adding Compound: Dissolve compounds in DMSO to obtain a final concentration of 10 mM. Then create the appropriate dilutions for your particular compound in glass vials. Once all the dilutions are ready place 1 μL of compound in each well. • 5. Prepare Bead mix: In the dark room using green light only create a tube with 3.84 mL of cold buffer and 3 μL of GST Donor beads and Flag acceptor beads. • 6. Distribute Bead mix: Invert the tube a couple times before distributing 40 μL of mix to each well. • 7. Incubation: After adding beads wrap the plate in tin foil twice and remove the covered plate from dark room. Incubate the plate at room temperature while rocking gently for 4 hours. • 8. Read: After 4 hours place the uncovered plate in the plate reader. Make sure the room is relatively tree of white light when placing the plate in the machine. It is ok to have the green light on if needed. • 9. […] Flag acceptor beads should be aliquoted into small opaque tubes (20-50 μl per tube) upon arrival from the manufacturer. Place both sets of beads in 4° C. storage when not in use. • 11. Avoid expose beads to white light. • 12. Pipette beads up and down several times before adding to a tube of cold buffer solution. • 13. Amount of Beads used for Bead mix may vary from batch to batch.

[3] = test system: VEGF; experiment: VEGF protein secretion by ELISA, 786-O cells; type: cell-based, human; conditions: about 18 hours, 0.00655-20 μM
Method: VEGF protein secretion was measured by ELISA following incubation of cultured 786-O cells for about eighteen (18) hours with Compund (1) (FIG. 19a) or with Compound (47) (FIG. 19b).

[4] = target: GST-ARNT-PAS-B*-FLAG (Homo sapiens, UniProt P27540, E362R); experiment: AlphaScreen control reaction with doubly tagged protein; type: biochemical; conditions: single doubly tagged protein
Chain of GST-ARNT-PAS-B*-FLAG (P27540 355-470 E362R): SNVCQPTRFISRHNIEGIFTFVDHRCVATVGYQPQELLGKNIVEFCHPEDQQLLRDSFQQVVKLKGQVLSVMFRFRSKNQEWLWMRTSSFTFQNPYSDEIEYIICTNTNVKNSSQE
Excerpt: Upon illumination with red (680 nm) light, donor beads will generate short-lived singlet oxygen (^1O2). Nearby (<200 nm) acceptor beads can react with ^1O2 to emit light at shorter wavelengths (top). Compounds that disrupt the complex correspondingly eliminate this signal (bottom). Compounds that non-specifically interfere with the AlphaScreen assay can be identified with a counterscreen in which the ARNT PAS-B* domain was simultaneously tagged with both the GST and FLAG tags. […] At these concentrations, protein binding to the acceptor beads has become saturated and free ARNT PAS-B* competes with the coated acceptor beads for the donor beads bound to HIF-2α PAS-B*. […] Assays were performed in triplicate and the error bars represent±SD.

Chain of HIF-2α PAS-B (Q99814 240-350): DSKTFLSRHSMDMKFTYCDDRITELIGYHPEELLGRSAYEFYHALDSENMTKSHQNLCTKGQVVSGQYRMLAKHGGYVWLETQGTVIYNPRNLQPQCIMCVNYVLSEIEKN

`Fc1cc(Br)cc([C@@H]2C[C@H](c3ccccc3)n3nnnc3N2)c1` [Compound 49, (5S,7R)-5-(3-bromo-5-fluorophenyl)-7-phenyl-4,5,6,7-tetrahydrotetrazolo[1,5-a]pyrimidine] gave a Kd [1] of 0.268 µM and an IC50 [2] of 0.35 µM.
`O=[N+]([O-])c1c(Nc2cc(F)cc(C(F)(F)F)c2)ccc2nonc12` [Compound 10, N-(3-fluoro-5-(trifluoromethyl)phenyl)-4-nitrobenzo[c][1,2,5]oxadiazol-5-amine] showed a Kd ([1]; read-out: ITC Kd) of 0.37 µM and an IC50 [2] of 0.43 µM.
`O=[N+]([O-])c1ccccc1Nc1cc(F)cc(Cl)c1` (racemic) [Compound 33] gave a Kd [1] of 4.3 µM.
In the case of `Brc1cccc([C@@H]2C[C@H](c3cccc(Br)c3)n3nnnc3N2)c1` [Compound 58, (5S,7R)-5,7-bis(3-bromophenyl)-4,5,6,7-tetrahydrotetrazolo[1,5-a]pyrimidine], the Kd [1] is reported as 0.089 µM and the IC50 [2] is reported as 0.1 µM.
Work on `O=[N+]([O-])c1c(Nc2cccc(C(F)(F)F)c2)ccc2nonc12` [Compound 6, 4-nitro-N-(3-(trifluoromethyl)phenyl)benzo[c][1,2,5]oxadiazol-5-amine] yielded a Kd ([1]; read-out: ITC Kd) of 0.64 µM and an IC50 [2] of 0.46 µM.
In the case of `O=[N+]([O-])c1c(NCc2ccc(Cl)cc2)ccc2nonc12` [Compound 19], the IC50 [2] is reported as > 5 µM.
`Fc1cc(Br)cc([C@@H]2C[C@H](c3cccc(Br)c3)n3nnnc3N2)c1` [Compound 47, (5S,7R)-5-(3-Bromo-5-fluorophenyl)-7-(3-bromophenyl)-4,5,6,7-tetrahydrotetrazolo[1,5-a]pyrimidine] was tested, and the VEGF protein secretion [3] was “reduce VEGF protein secretion in a dose-dependent manner”, the Kd [1] was 0.083 µM and the IC50 [2] was 0.1 µM.
For `Fc1ccc(Br)c(F)c1[C@H]1C[C@@H](c2cccc(Br)c2)Nc2nnnn21` [Compound 62, (5S,7R)-7-(3-bromo-2,6-difluorophenyl)-5-(3-bromophenyl)-4,5,6,7-tetrahydrotetrazolo[1,5-a]pyrimidine], the Kd [1] was 0.044 µM and the IC50 [2] was < 0.1 µM.
For `O=[N+]([O-])c1c(Nc2cc(F)cc(Cl)c2)ccc2nn[nH]c12` [Compound 34], the IC50 [2] was > 10 µM.
With `Nc1c(Nc2cc(F)cc(Cl)c2)ccc2nonc12` [Compound 39] the Kd [1] was ~6 µM and the IC50 [2] was > 30 µM.
For `Clc1ccccc1[C@@H]1C[C@H](c2cccc(Br)c2)Nc2nnnn21` (racemic) [Compound 51, (+/−)-(cis)-5-(3-bromophenyl)-7-(2-chlorophenyl)-4,5,6,7-tetrahydrotetrazolo[1,5-a]pyrimidine], the Kd [1] was 0.435 µM and the IC50 [2] was 0.3 µM.
Compound `CN(C)S(=O)(=O)c1c(Nc2cc(F)cc(Cl)c2)ccc2nonc12` [Compound 44] has a Kd ([1]; read-out: ITC Kd) of 5 µM.
`O=[N+]([O-])c1c(NCc2cc(F)cc(Cl)c2)ccc2nonc12` [Compound 21] showed a Kd ([1]; read-out: ITC Kd) of 2 µM.
In the case of `O=[N+]([O-])c1c(Nc2cccc(Cl)c2)ccc2nonc12` [Compound 5, N-(3-chlorophenyl)-4-nitrobenzo[c][1,2,5]oxadiazol-5-amine], the Kd ([1]; read-out: ITC Kd) is reported as 0.16 µM and the IC50 [2] is reported as 0.18 µM.
In the case of `O=[N+]([O-])c1c(Nc2ccc(Br)c(F)c2)ccc2nonc12` [Compound 7], the Kd [1] is reported as 0.22 µM and the IC50 [2] is reported as 0.15 µM.
`Fc1ccc(Cl)c(F)c1[C@@H]1C[C@H](c2cccc(Br)c2)Nc2nnnn21` (racemic) [Compound 61, (+/−)-(cis)-5-(3-bromophenyl)-7-(3-chloro-2,6-difluorophenyl)-4,5,6,7-tetrahydrotetrazolo[1,5-a]pyrimidine] was tested, and the Kd [1] was 0.032 µM and the IC50 [2] was 0.2 µM.
Compound `O=[N+]([O-])c1c(Nc2ccc(Cl)c(C(F)(F)F)c2)ccc2nonc12` [Compound 9, N-(4-chloro-3-(trifluoromethyl)phenyl)-4-nitrobenzo[c][1,2,5]oxadiazol-5-amine] has a Kd [1] of 0.26 µM and an IC50 [2] of 0.09 µM.
Work on `CNS(=O)(=O)c1c(Nc2cc(F)cc(Cl)c2)ccc2nonc12` [Compound 43] yielded a Kd ([1]; read-out: ITC Kd) of 5 µM.
With `CC(C)C[C@@H]1C[C@H](c2cccc(Br)c2)Nc2nnnn21` (racemic) [Compound 64, (+/−)-(cis)-5-(3-bromophenyl)-7-isobutyl-4,5,6,7-tetrahydrotetrazolo[1,5-a]pyrimidine] the Kd [1] was 0.93 µM.
`O=[N+]([O-])c1cccc(Nc2ccc3nonc3c2[N+](=O)[O-])c1` [Compound 27] was tested, and the Kd [1] was 4.3 µM.
`O=[N+]([O-])c1c(Nc2cc(F)cc(Cl)c2)ccc2[nH]cnc12` [Compound 35] was tested, and the IC50 [2] was > 5 µM.
`O=[N+]([O-])c1c(Nc2cc(F)cc(F)c2)ccc2nonc12` [Compound 11, N-(3,5-difluorophenyl)-4-nitrobenzo[c][1,2,5]oxadiazol-5-amine] was tested, and the Kd [1] was 2.1 µM and the IC50 [2] was > 1 µM.
`O=[N+]([O-])c1c(NCc2ccc(F)cc2C(F)(F)F)ccc2nonc12` [Compound 4, N-(4-fluoro-2-(trifluoromethyl)benzyl)-4-nitrobenzo[c][1,2,5]oxadiazol-5-amine] was tested, and the Kd [1] was 0.52 µM and the IC50 [2] was > 30 µM.
In the case of `Clc1ccc(Br)cc1[C@H]1C[C@@H](c2cccc(Br)c2)Nc2nnnn21` [Compound 60, (5S,7R)-7-(5-bromo-2-chlorophenyl)-5-(3-bromophenyl)-4,5,6,7-tetrahydrotetrazolo[1,5-a]pyrimidine], the Kd [1] is reported as 0.192 µM and the IC50 [2] is reported as 0.4 µM.
With `O=[N+]([O-])c1c(Nc2cccc(F)c2)ccc2nonc12` [Compound 28] the Kd [1] was 2.1 µM.
For `O=[N+]([O-])c1c(Nc2cccc(Cl)c2F)ccc2nonc12` [Compound 8, N-(3-chloro-2-fluorophenyl)-4-nitrobenzo[c][1,2,5]oxadiazol-5-amine], the Kd ([1]; read-out: ITC Kd) was 1.1 µM and the IC50 [2] was 0.76 µM.
`O=[N+]([O-])c1c(NCc2ccccc2)ccc2nonc12` [Compound 17] was tested, and the IC50 [2] was > 5 µM.
Work on `Fc1c(Cl)cccc1[C@@H]1C[C@H](c2cccc(Br)c2)Nc2nnnn21` (racemic) [Compound 59, (+/−)-(cis)-5-(3-bromophenyl)-7-(3-chloro-2-fluorophenyl)-4,5,6,7-tetrahydrotetrazolo[1,5-a]pyrimidine] yielded a Kd [1] of 0.042 µM and an IC50 [2] of 0.2 µM.
`Brc1cccc([C@H]2C[C@@H](c3ccccc3I)n3nnnc3N2)c1` (racemic) [Compound 55, (+/−)-(cis)-5-(3-bromophenyl)-7-(2-iodophenyl)-4,5,6,7-tetrahydrotetrazolo[1,5-a]pyrimidine] showed a Kd [1] of 0.862 µM and an IC50 [2] of 0.6 µM.
For `Clc1cccc([C@H]2C[C@@H](c3cccc(Br)c3)Nc3nnnn32)c1` [Compound 57], the Kd [1] was 0.133 µM and the IC50 [2] was 0.15 µM.
With `O=[N+]([O-])c1c(NCc2cc(F)ccc2C(F)(F)F)ccc2nonc12` [Compound 22] the IC50 [2] was > 30 µM.
`O=[N+]([O-])c1c(Nc2ccc(Cl)c(Cl)c2)ccc2nonc12` [Compound 12, N-(3,4-dichlorophenyl)-4-nitrobenzo[c][1,2,5]oxadiazol-5-amine] showed a Kd ([1]; read-out: ITC Kd) of 0.17 µM and an IC50 [2] of 0.12 µM.
In the case of `Fc1cc(Cl)cc(Nc2ccc3nonc3c2)c1` [Compound 38], the Kd [1] is reported as ~3 µM.
Work on `Fc1ccccc1[C@@H]1C[C@H](c2cccc(Br)c2)Nc2nnnn21` (racemic) [Compound 50, (+/−)-(cis)-5-(3-bromophenyl)-7-(2-fluorophenyl)-4,5,6,7-tetrahydrotetrazolo[1,5-a]pyrimidine] yielded a Kd [1] of 0.76 µM and an IC50 [2] of 0.7 µM.
For `Brc1cccc([C@H]2C[C@@H](c3ccccc3Br)n3nnnc3N2)c1` (racemic) [Compound 54, (+/−)-(cis)-7-(2-bromophenyl)-5-(3-bromophenyl)-4,5,6,7-tetrahydrotetrazolo[1,5-a]pyrimidine], the Kd [1] was 0.565 µM and the IC50 [2] was 0.2 µM.
In the case of `O=[N+]([O-])c1cc(Nc2ccc3nonc3c2[N+](=O)[O-])ccc1Cl` [Compound 32], the Kd ([1]; read-out: ITC Kd) is reported as 1.1 µM, the IC50 [2] is reported as 0.2 µM and the “Effect on HIF-2α/ARNT PAS-B* heterodimerization in AlphaScreen” value ([2]; triplicate) is reported as “antagonizes HIF-2α/ARNT PAS-B* heterodimerization”. For the same compound, the “Effect on AlphaScreen signal of control reaction” value [4] was “No effect”.
For `Fc1c(Br)ccc(Br)c1[C@H]1C[C@@H](c2cccc(Br)c2)Nc2nnnn21` [Compound 63, (5S,7R)-5-(3-bromophenyl)-7-(3,6-dibromo-2-fluorophenyl)-4,5,6,7-tetrahydrotetrazolo[1,5-a]pyrimidine], the Kd [1] was 0.031 µM and the IC50 [2] was < 0.01 µM.
For `O=[N+]([O-])c1c(NCc2ccc(F)cc2Cl)ccc2nonc12` [Compound 2, N-(2-chloro-4-fluorobenzyl)-4-nitrobenzo[c][1,2,5]oxadiazol-5-amine], the Kd ([1]; read-out: ITC Kd) was 0.5 µM and the IC50 [2] was 0.33 µM.
`COc1cccc(Nc2ccc3nonc3c2[N+](=O)[O-])c1` [Compound 23] was tested, and the IC50 [2] was > 10 µM.
With `Cc1ccc(CNc2ccc3nonc3c2[N+](=O)[O-])cc1` [Compound 18] the IC50 [2] was > 10 µM.
`Clc1cccc([C@@H]2C[C@H](c3cccc(Br)c3)Nc3nnnn32)c1` (racemic) [Compound 56, (+/−)-(cis)-5-(3-bromophenyl)-7-(3-chlorophenyl)-4,5,6,7-tetrahydrotetrazolo[1,5-a]pyrimidine] was tested, and the Kd [1] was 0.106 µM and the IC50 [2] was 0.2 µM.
`Clc1ccccc1[C@H]1C[C@@H](c2cccc(Br)c2)Nc2nnnn21` [Compound 52, (5S,7R)-5-(3-bromophenyl)-7-(2-chlorophenyl)-4,5,6,7-tetrahydrotetrazolo[1,5-a]pyrimidine] gave a Kd [1] of 0.337 µM and an IC50 [2] of 0.3 µM.
With `O=[N+]([O-])c1c(NCc2cc(F)ccc2F)ccc2nonc12` [Compound 3, N-(2,5-difluorobenzyl)-4-nitrobenzo[c][1,2,5]oxadiazol-5-amine] the Kd [1] was > 10 µM and the IC50 [2] was > 10 µM.

Reference: patent US9757379B2, “Inhibition of HIF-2α heterodimerization with HIF1β (ARNT)” (The Board of Regents of the University of Texas System, priority 2012, dated 2017)
